The values that follow come from US11021481B2, “Substituted isoindolin-1-ones and 2,3-dihydro-1h-pyrrolo[3,4-c]pyridin-1-ones as HPK1 antagonists” (Nimbus Saturn, Inc., priority 2019, dated 2021).

Bounds are passed on as bounds.

Chain of HPK1 (Q92918 whole entry): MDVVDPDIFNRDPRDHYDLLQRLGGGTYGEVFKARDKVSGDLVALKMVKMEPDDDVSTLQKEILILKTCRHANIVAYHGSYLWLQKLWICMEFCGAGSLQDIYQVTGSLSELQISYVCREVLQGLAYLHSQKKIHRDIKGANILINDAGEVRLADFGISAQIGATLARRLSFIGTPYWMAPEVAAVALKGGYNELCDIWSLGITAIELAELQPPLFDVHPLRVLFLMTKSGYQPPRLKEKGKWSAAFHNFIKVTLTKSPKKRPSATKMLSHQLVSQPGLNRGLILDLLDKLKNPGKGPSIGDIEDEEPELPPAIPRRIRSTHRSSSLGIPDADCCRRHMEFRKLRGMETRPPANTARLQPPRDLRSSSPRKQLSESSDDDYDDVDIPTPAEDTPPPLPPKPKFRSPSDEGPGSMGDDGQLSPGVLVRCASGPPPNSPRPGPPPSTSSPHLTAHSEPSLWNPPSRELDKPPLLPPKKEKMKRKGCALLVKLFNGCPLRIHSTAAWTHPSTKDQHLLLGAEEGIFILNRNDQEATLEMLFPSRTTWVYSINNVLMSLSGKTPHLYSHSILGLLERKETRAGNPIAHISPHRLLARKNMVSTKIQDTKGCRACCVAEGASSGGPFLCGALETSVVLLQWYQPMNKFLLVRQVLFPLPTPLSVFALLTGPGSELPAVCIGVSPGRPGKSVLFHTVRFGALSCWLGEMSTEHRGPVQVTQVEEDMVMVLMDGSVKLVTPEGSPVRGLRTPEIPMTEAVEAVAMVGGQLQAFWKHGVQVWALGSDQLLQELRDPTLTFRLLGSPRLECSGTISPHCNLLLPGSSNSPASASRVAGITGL

The target in the test is HPK1 (Homo sapiens (Human), UniProt Q92918). Description: HPK1 biochemical enzyme assay (microfluidic mobility shift assay). Conditions: 1.5 nM HPK1, ATP 1 mM final, 30 min preincubation, 60 min at RT, Caliper EZ Reader; read-out: HPK1 1000UMATP caliper IC50. An outline of the steps:
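Ten-point compound titrations (top 3 μM final) preincubated 30 min with HPK1 and substrate, then reaction started with 1 mM ATP and 1 μM substrate, 5 mM MgCl2. After 60 min at RT, reaction terminated and product measured by microfluidic mobility shift.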
As a reminder, the IC50 is the concentration that inhibits the measured activity by half. Turning to `CN1CCN(c2ccc(Nc3ccc(-c4ccnc5cc[nH]c45)c4c3C(=O)NC4)nc2)CC1` [I-81, 7-[[5-(4-methylpiperazin-1-yl)-2-pyridyl]amino]-4-(1H-pyrrolo[3,2-b]pyridin-7-yl)isoindolin-1-one], the IC50 was below 100 nM.
As to `O=C1NCc2c(-c3cnc4n3CCOC4)ccc(Nc3ccc(N4CCC(O)CC4)cn3)c21` [I-143], the concentration for half-maximal inhibition (IC50) is below 100 nM.
As to `Cc1cccc2c(-c3ccc(Nc4ccc(C5CCOC5)c(CN(C)C)n4)c4c3CNC4=O)cnn12` (stereo in doubt) [I-710, (R)-7-((6-((dimethylamino)-methyl)-5-(tetrahydrofuran-3-yl)pyridin-2-yl)amino)-4-(7-methylpyra-zolo[1,5-a]pyridin-3-yl)isoindolin-1-one], the IC50 is below 100 nM.
With `Cn1ccc2c(-c3ccc(Nc4ccc(CS(C)(=O)=O)cn4)c4c3CNC4=O)ccnc21` [I-293, 4-(1-methyl-1H-pyrrolo[2,3-b]pyridin-4-yl)-7-((5-((methylsulfonyl)methyl)pyridin-2-yl)amino)isoindolin-1-one] the figure was below 100 nM.
With `Cn1ccc2c(-c3ccc(-n4ccc(N5CCC[C@@](C)(O)C5)n4)c4c3CNC4=O)ccnc21` (single isomer, unassigned) [I-305] the figure was above 1000 nM.
With `CN1CCN(c2cccc(Nc3ccc(-c4cnc5cnccn45)c4c3C(=O)NC4)n2)CC1` [I-234, 4-imidazo[1,2-a]pyrazin-3-yl-7-[[6-(4-methylpiperazin-1-yl)-2-pyridyl]-amino]isoindolin-1-one] the figure was 100 to 1000 nM; with “(R)-7-((6- ((dimethylamino)- methyl)-5- (tetrahydrofuran- 3-yl)pyridin- 2-yl)amino)-4- (8-methylimidazo [1,2-a]pyridin- 3-yl)isoindolin- 1-one [I-696]”, below 100 nM.
With `C[C@@H](c1ccc(Nc2ccc(-c3cnc4cc(F)ccn34)c3c2C(=O)NC3)nc1)N(C)C` [I-520, (S)-7-((5-(1-(dimethylami-no)ethyl)pyridin-2-yl)amino)-4-(7-fluoroimidazo [1,2-a]pyridin-3-yl)isoindolin-1-one], the IC50 was below 100 nM.
`Cc1ccc2c(-c3ccc(Nc4ccc(N5CCO[C@H](C(C)(C)O)C5)cn4)c4c3CNC4=O)cnn2c1` [I-489, 7-[[5-[(2S)-2-(1-hydroxy-1-methylethyl)morpholin-4-yl]-2-pyripyl]amino]-4-(6-methylpyrazo-lo[1,5-a]pyridin-3-yl)isoindolin-1-one]: the IC50 is below 100 nM.
On to `O=C1NCc2c(-c3cnc4cnccn34)ccc(Nc3ccc(N4CCC(O)CC4)cn3)c21` [I-133, 7-[[5-(4-hydroxy-1-piperidyl)-2-pyridyl]amino]-4-imidazo[1,2-a]pyrazin-3-yl-isoindolin-1-one], for which the IC50 is below 100 nM.
With `COCCN(C)Cc1nc(Nc2ccc(-c3cnc4cc(F)ccn34)c3c2C(=O)NC3)ccc1C1CCOC1` (stereo in doubt) [I-727, (R)-4-(7-fluoroimidazo [1,2-a]pyridin-3-yl)-7-((6-(((2-methoxyethyl) (methyl)-amino)methyl)-5-(tetrahydrofuran-3-yl)pyridin-2-yl)amino)isoin-dolin-1-one] the figure was below 100 nM; with `C[C@H]1CCn2c(-c3ccc(Nc4ccc(N5CCC(O)CC5)cn4)c4c3CNC4=O)cnc2C1` [I-303, (S)-7-((5-(4-hydroxy-piperidin-1-yl)pyridin-2-yl)amino)-4-(7-methyl-5,6,7.8-tetrahydroimi-dazo[1,2-a]pyridin-3-yl)isoindolin-1-one], below 100 nM.
With `COCCNc1ccn2c(-c3ccc(Nc4ccc(N5CCOCC5)cn4)c4c3CNC4=O)cnc2c1` [I-206, 4-[7-(2-methoxyethyl-amino)imidazo [1,2-a]pyridin-3-yl]-7-[(5-morpholino-2-pyridyl)amino] isoindolin-1-one], the IC50 lay within 100 to 1000 nM.
Turning to `C[C@H]1CN([C@@H](C)c2ccc(Nc3ccc(-c4cnc5cc(F)ccn45)c4c3C(=O)NC4)nc2)CCO1` [I-522, 4-(7-fluoroimidazo [1,2-a]pyridin-3-yl)-7-((5-((S)-1-((S)-2-methylmorpho-lino)ethyl)pyri-din-2-yl)amino) isoin-dolin-1-one], the IC50 is below 100 nM.
With `CC(C)(O)[C@@H]1CCCN(c2ccc(Nc3cnc(-c4cnc5ccccn45)c4c3C(=O)NC4)nc2)C1` [I-220, 7-[[5-[(3R)-3-(1-hydroxy-1-methyl-ethyl)-1-piperidyl]-2-pyridyl]-amino]-4-imidazo[1,2-a]pyridin-3-yl-2,3-dihydropyrrolo [3,4-c]pyridin-1-one] the figure was below 100 nM; with `Cc1csc2c(-c3ccc(Nc4ccc(N5CCC(O)CC5)cn4)c4c3CNC4=O)ccnc12` [I-361, 7-((5-(4-hydroxypip-eridin-1-yl)pyridin-2-yl)amino)-4-(3-methylthieno [3,2-b]pyridin-7-yl)isoindolin-1-one], below 100 nM.
Take `CN1CCN(c2ccc(Nc3ccc(-c4ccnc5ocnc45)c4c3C(=O)NC4)nc2)CC1` [I-270, 7-((5-(4-methylpiperazin-1-yl)pyridin-2-yl)amino)-4-(oxazolo[5,4-b]pyridin-7-yl)isoindolin-1-one]: the IC50 fell in the range of 100 to 1000 nM.
Next, `Cn1ccc2c(-c3ncc(Nc4cccc(N5C[C@H](N6CCC6)CC5=O)n4)c4c3CNC4=O)ccnc21` [I-724, (R)-7-((6-(4-(azetidin-1-yl)-2-oxopyrrolidin-1-yl)pyridin-2-yl)amino)-4-(1-methyl-1H-pyrrolo[2,3-b]pyridin-4-yl)-2,3-dihydro-1H-pyrrolo[3,4-c]pyridin-1-one]: 100 to 1000 nM.
With `O=C1NCc2c(-c3cnc4cc(F)ccn34)ccc(Nc3ccc(N4CCC(O)(CN5CCCC5)CC4)cn3)c21` [I-387] the figure was below 100 nM.
As to `O=C1NCc2c(-c3cnc4cc(F)ccn34)ccc(Nc3ccc(N4CC[C@H](F)[C@@H](O)C4)cn3)c21` [I-346, 7-((5-((3S.4S)-4-fluoro-3-hydroxypiperidin-1-yl)pyridin-2-yl)amino)-4-(7-fluoroimidazo [1,2-a]pyridin-3-yl)isoindolin-1-one], the IC50 is below 100 nM.
Next, `C[C@H]1COCCN1c1ccc(Nc2ccc(-c3cnc4cnccn34)c3c2C(=O)NC3)nc1` [I-314, (S)-4-(imidazo[1,2-a]pyrazin-3-yl)-7-((5-(3-methylmorpho-lino)pyridin-2-yl)amino)isoin-dolin-1-one]: below 100 nM; `CN1CCOC2(CCCN(c3ccc(Nc4ccc(-c5cnc6cc(F)ccn56)c5c4C(=O)NC5)nc3)C2)C1` (centres unmarked) [I-496, 4-(7-fluoroimidazo [1,2-a]pyridin-3-yl)-7-[[5-(4-methyl-1-oxa-4,8-diazaspiro[5.5]undecan-8-yl)-2-pyridyl]amino) isoindolin-1-one]: below 100 nM.
With `CN[C@H]1CCN(c2cccc(Nc3cnc(-c4ccnc5c4ccn5C)c4c3C(=O)NC4)n2)C1` [I-245, 7-[[6-[(3S)-3-(methylamino)pyrrolidin-1-yl]-2-pyridyl]amino]-4-(1-methylpyrrolo [2,3-b]pyridin-4-yl)-2,3-dihydropyrrolo [3,4-c]pyridin-1-one] the figure was below 100 nM; with `CN(C)Cc1nc(Nc2ccc(-c3cnc4cc(F)ccn34)c3c2C(=O)NC3)ccc1C1(C#N)CCOCC1` [I-824, 4-(2-((dimethylamino)methyl)-6-((7-(7-fluoroimidazo [1,2-a]pyridin-3-yl)-3-oxoisoindolin-4-yl)amino)pyri-din-3-yl)tetrahydro-2H-pyran-4-carbonitrilc], below 100 nM.
In the case of `CNC(C)(C)[C@@H]1CN(c2ccc(Nc3ccc(-c4cnc5cc(F)ccn45)c4c3C(=O)NC4)nc2)CCO1` (single isomer, unassigned) [I-675], the IC50 is below 100 nM.
Turning to `O=C1NCc2c(-c3ccnn4cccc34)ncc(Nc3ccc(N4CCC(O)CC4)cn3)c21` [I-588, 7-((5-(4-hydroxypiperidin-1-yl)pyridin-2-yl)amino)-4-(pyrrolo[1,2-b]pyridazin-4-yl)-2,3-dihydro-1H-pyrrolo[3,4-c]pyridin-1-one], the IC50 was above 1000 nM.
Take `O=C1NCc2c(-c3cnc4cc(F)ccn34)ccc(Nc3ccc(N4CCOC[C@H](O)C4)cn3)c21` [I-338, (R)-4-(7-fluoroimidazo [1,2-a]pyridin-3-yl)-7-((5-(6-hydroxy-1,4-oxazepan-4-yl)pyridin-2-yl)amino)isoin-dolin-1-one]: the IC50 was below 100 nM.
With `O=C1NCc2c(-c3cnc4ccccn34)ccc(Nc3ccc(N4CCNCC4)cn3)c21` [I-60, 4-imidazo[1,2-a]pyridin-3-yl-7-[(5-piperazin-1-yl-2-pyridyl)amino] isoindolin-1-one] the figure was below 100 nM; with `C[C@H](O)[C@H]1CN(c2ccc(Nc3ccc(-c4cnc5cc(F)ccn45)c4c3C(=O)NC4)nc2)CCO1` [I-634, 4-(7-fluoroimidazo[1,2-a]pyridin-3-yl)-7-((5-((R)-2-((S)-1-hydroxyethyl)morpholino)pyridin-2-yl)amino)isoindolin-1-one], below 100 nM.
Next, `O=C1NCc2c(-c3ccnc4c3ccn4C(F)F)ccc(Nc3ccc(N4CCNCC4)cn3)c21` [I-119, 4-[l-(difluorometh-yl)pyrrolo[2,3-b]pyridin-4-yl]-7-[(5-piperazin-1-yl-2-pyridyl)amino] isoindolin-1-one]: below 100 nM; `Cc1cccc2c(-c3ccc(Nc4ccc(N5CCC(O)CC5)cn4)c4c3CNC4=O)cnn12` [I-136, 7-[[5-(4-hydroxy-1-piperidyl)-2-pyripyl]amino]-4-(7-methylpyrazolo[1,5-a]pyridin-3-yl)isoindolin-1-one]: below 100 nM; `CN(C)C[C@@H]1CN(c2ccc(Nc3ccc(-c4cnc5cc(Cl)ccn45)c4c3C(=O)NC4)nc2)CCO1` [I-593, (R)-4-(7-chloroimidazo [1,2-a]pyridin-3-yl)-7-((5-(2-((dimethylamino)-methyl)mor-pholino)pyridin-2-yl)amino)isoin-dolin-1-one]: below 100 nM.
